In US8969405B2, “Anticancer compounds and methods of making and using same” (St. Jude Children's Research Hospital, priority 2008, dated 2015):

What was measured:
[1] = system: JeKo-1 mantle cell lymphoma cell line; experiment: In vitro cytotoxicity analysis (XTT), 72-hour exposure; assay type: cell-based; details: Homo sapiens, JEKo1 cells
Procedure: (§1) Briefly, cell lines were seeded at various cell densities depending on the cell type.
(§2) Tables 1-3 display cytotoxicity data for exemplary compounds following a 72-hour exposure.

[2] = system: PC-3 prostate cancer cell line; experiment: as above; assay type: cell-based; details: Homo sapiens, PC3 cells
Procedure: as §1, §2

[3] = system: JVM-2 mantle cell lymphoma cell line; experiment: as above; assay type: cell-based; details: Homo sapiens, JVM-2 cells
Procedure: as §1, §2

[4] = system: WiDr colorectal cancer cell line; experiment: as above; assay type: cell-based; details: Homo sapiens, read-out: Cytotoxicity IC50
Procedure: as §1

[5] = Stability study in buffer solution by HPLC; assay type: physicochemical; details: 100 μM in PBS, pH 7.4
Procedure: Stability studies were performed for exemplary compounds 48 and 15. A 100 μM solution of compound 48 was prepared in buffer (PBS, pH 7.4) and warfarin was used as an internal standard. A sample was injected into a HPLC periodically starting at day 0 and ending at about 6 weeks to find out the stability of compound 48 in PBS solution. […] After 6 weeks, 58% of compound 48 remained in the buffer solution.

| SMILES | IC50 [1] | IC50 [2] | IC50 [3] | IC50 [4] | compound remaining in the buffer solution ([5]; after 6 weeks) | degradable products ([5]; after 1 day) | half-life at 100 μM ([5]; PBS buffer, read-out: calculated half life (converted)) |
| --- | --- | --- | --- | --- | --- | --- | --- |
| CC(/C=C/[C@@H]1C[C@]2(CO2)CC(C)(C)O1)=C\C[C@H]1CC[C@@H](NC(=O)/C=C\[C@H](C)OC(=O)C2CCN(C)CC2)CC1 [Compound 16, (S,Z)-5-((1R,4R)-4-((2E,4E)-5-((3R,5S)-7,7-dimethyl-1,6-dioxaspiro[2.5]octan-5-yl)-3-methylpenta-2,4-dienyl)cyclohexylamino)-5-oxopent-3-en-2-yl 1-methylpiperidine-4-carboxylate] | > 1000 nM | 10000 nM | – | – | – | – | – |
| CC(/C=C/[C@@H]1C[C@]2(CO2)CC(C)(C)O1)=C\C[C@H]1CC[C@@H](NC(=O)/C=C\[C@H](C)OC(=O)C2CCOCC2)CC1 [Compound 17, (S,Z)-5-((1R,4R)-4-((2E,4E)-5-((3R,5S)-7,7-dimethyl-1,6-dioxaspiro[2.5]octan-5-yl)-3-methylpenta-2,4-dienyl)cyclohexylamino)-5-oxopent-3-en-2-yl tetrahydro-2H-pyran-4-carboxylate] | 440 nM | 1970 nM | – | – | – | – | – |
| CC(/C=C/[C@@H]1C[C@]2(CO2)CC(C)(C)O1)=C\C[C@H]1CC[C@@H](NC(=O)/C=C\[C@H](C)OC(=O)c2ccco2)CC1 [Compound 18, (S,Z)-5-((1R,4R)-4-((2E,4E)-5-((3R,5S)-7,7-dimethyl-1,6-dioxaspiro[2.5]octan-5-yl)-3-methylpenta-2,4-dienyl)cyclohexylamino)-5-oxopent-3-en-2-yl furan-2-carboxylate] | 140 nM | 3500 nM | – | – | – | – | – |
| CC(/C=C/[C@@H]1C[C@]2(CO2)CC(C)(C)O1)=C\C[C@H]1CC[C@@H](NC(=O)/C=C\[C@H](C)OC(=O)c2cccn2C)CC1 [Compound 19, (S,Z)-5-((1R,4R)-4-((2E,4E)-5-((3R,5S)-7,7-Dimethyl-1,6-dioxaspiro[2.5]octan-5-yl)-3-methylpenta-2,4-dienyl)cyclohexylamino)-5-oxopent-3-en-2-yl 1-methyl-1H-pyrrole-2-carboxylate] | 390 nM | 4300 nM | – | – | – | – | – |
| CC(/C=C/[C@@H]1C[C@]2(CO2)CC(C)(C)O1)=C\C[C@H]1CC[C@@H](NC(=O)/C=C\[C@H](C)OC(=O)c2ccccc2)CC1 [Compound 20, (S,Z)-5-((1R,4R)-4-((2E,4E)-5-((3R,5S)-7,7-dimethyl-1,6-dioxaspiro[2.5]octan-5-yl)-3-methylpenta-2,4-dienyl)cyclohexylamino)-5-oxopent-3-en-2-yl benzoate] | 410 nM | 4900 nM | – | – | – | – | – |
| CC(/C=C/[C@@H]1C[C@]2(CO2)CC(C)(C)O1)=C\C[C@H]1CC[C@@H](NC(=O)/C=C\[C@H](C)OC(=O)c2cccnc2)CC1 [Compound 21, (S,Z)-5-((1R,4R)-4-((2E,4E)-5-((3R,5S)-7,7-dimethyl-1,6-dioxaspiro[2.5]octan-5-yl)-3-methylpenta-2,4-dienyl)cyclohexylamino)-5-oxopent-3-en-2-yl nicotinate] | 160 nM | 8100 nM | – | – | – | – | – |
| CC(/C=C/[C@@H]1C[C@]2(CO2)CC(C)(C)O1)=C\C[C@H]1CC[C@@H](NC(=O)/C=C\[C@H](C)OC(=O)C2CCN(c3ccnc(C(F)(F)F)n3)CC2)CC1 [Compound 22, (S,Z)-5-((1R,4R)-4-((2E,4E)-5-((3R,5S)-7,7-dimethyl-1,6-dioxaspiro[2.5]octan-5-yl)-3-methylpenta-2,4-dienyl)cyclohexylamino)-5-oxopent-3-en-2-yl 1-(2-(trifluoromethyl)pyrimidin-4-yl)piperidine-4-carboxylate] | > 1000 nM | > 10000 nM | – | – | – | – | – |
| CC(/C=C/[C@@H]1C[C@]2(CO2)CC(C)(C)O1)=C\C[C@H]1CC[C@@H](NC(=O)/C=C\[C@H](C)OC(=O)C(C)(C)C)CC1 [Compound 23, (S,Z)-5-((1R,4R)-4-((2E,4E)-5-((3R,5S)-7,7-dimethyl-1,6-dioxaspiro[2.5]octan-5-yl)-3-methylpenta-2,4-dienyl)cyclohexylamino)-5-oxopent-3-en-2-yl pivalate] | 30 nM | 760 nM | – | – | – | – | – |
| CC(/C=C/[C@@H]1C[C@]2(CO2)CC(C)(C)O1)=C\C[C@H]1CC[C@@H](NC(=O)/C=C\[C@H](C)OC(=O)N2CCN(C3CCCCCC3)CC2)CC1 [Compound 24, (S,Z)-5-((1R,4R)-4-((2E,4E)-5-((3R,5S)-7,7-dimethyl-1,6-dioxaspiro[2.5]octan-5-yl)-3-methylpenta-2,4-dienyl)cyclohexylamino)-5-oxopent-3-en-2-yl 4-cycloheptylpiperazine-1-carboxylate] | – | > 500 nM | > 1000 nM | – | – | – | – |
| COc1cccc(N2CCN(C(=O)O[C@@H](C)/C=C\C(=O)N[C@H]3CC[C@@H](C/C=C(C)/C=C/[C@@H]4C[C@]5(CO5)CC(C)(C)O4)CC3)CC2)c1 [Compound 25, (S,Z)-5-((1R,4R)-4-((2E,4E)-5-((3R,5S)-7,7-dimethyl-1,6-dioxaspiro[2.5]octan-5-yl)-3-methylpenta-2,4-dienyl)cyclohexylamino)-5-oxopent-3-en-2-yl 4-(3-methoxyphenyl)piperazine-1-carboxylate] | > 500 nM | > 2500 nM | > 500 nM | > 1250 nM | – | – | – |
| CC(/C=C/[C@@H]1C[C@]2(CO2)CC(C)(C)O1)=C\C[C@H]1CC[C@@H](NC(=O)/C=C\[C@H](C)OC(=O)N2CCN(C)CC2)CC1 [Compound 26, (S,Z)-5-((1R,4R)-4-((2E,4E)-5-((3R,5S)-7,7-dimethyl-1,6-dioxaspiro[2.5]octan-5-yl)-3-methylpenta-2,4-dienyl)cyclohexylamino)-5-oxopent-3-en-2-yl 4-methylpiperazine-1-carboxylate] | > 500 nM | > 2500 nM | > 500 nM | > 500 nM | – | – | – |
| CC(/C=C/[C@@H]1C[C@]2(CO2)CC(C)(C)O1)=C\C[C@H]1CC[C@@H](NC(=O)/C=C\[C@H](C)OC(=O)N2CCN(CCO)CC2)CC1 [Compound 27, (S,Z)-5-((1R,4R)-4-((2E,4E)-5-((3R,5S)-7,7-dimethyl-1,6-dioxaspiro[2.5]octan-5-yl)-3-methylpenta-2,4-dienyl)cyclohexylamino)-5-oxopent-3-en-2-yl 4-(2-hydroxyethyl)piperazine-1-carboxylate] | > 500 nM | > 2500 nM | > 500 nM | > 1250 nM | – | – | – |
| CC(/C=C/[C@@H]1C[C@](O)(CCl)CC(C)(C)O1)=C\C[C@H]1CC[C@@H](NC(=O)/C=C\[C@H](C)OC(=O)N2CCN(C3CCCCCC3)CC2)CC1 [Compound 28, (S,Z)-5-((1R,4R)-4-((2E,4E)-5-((2S,4R)-4-(chloromethyl)-4-hydroxy-6,6-dimethyltetrahydro-2H-pyran-2-yl)-3-methylpenta-2,4-dienyl)cyclohexylamino)-5-oxopent-3-en-2-yl 4-cycloheptylpiperazine-1-carboxylate] | – | > 5000 nM | > 10000 nM | > 1250 nM | – | – | – |
| CC(/C=C/[C@H]1OCC[C@@]2(CO2)[C@@H]1O)=C\C[C@H]1CC[C@@H](NC(=O)/C=C\[C@H](C)OC(=O)C(C)C)CC1 [Compound 38, (S,Z)-5-((1S,4R)-4-((2E,4E)-5-((3R,4R,5R)-4-hydroxy-1,6-dioxaspiro[2.5]octan-5-yl)-3-methylpenta-2,4-dienyl)cyclohexylamino)-5-oxopent-3-en-2-yl isobutyrate] | > 1000 nM | > 10000 nM | – | – | – | – | – |
| CC(/C=C/[C@@H]1C[C@]2(CO2)CC(C)(C)O1)=C\C[C@H]1OC[C@@H](NC(=O)/C=C\[C@H](C)OC(=O)C(C)C)CO1 [Compound 48, (S,Z)-5-((2R,5R)-2-((2E,4E)-5-((3R,5S)-7,7-dimethyl-1,6-dioxaspiro[2.5]octan-5-yl)-3-methylpenta-2,4-dienyl)-1,3-dioxan-5-ylamino)-5-oxopent-3-en-2-yl isobutyrate] | 170 nM | 5200 nM | – | – | 58% | No degradable products were found | 50.4 days |
| CC(/C=C/[C@@H]1C[C@]2(CO2)CC(C)(C)O1)=C\C[C@H]1OC[C@@H](NC(=O)/C=C\[C@H](C)OC(=O)C(C)(C)C)CO1 [Compound 49, (S,Z)-5-((2R,5R)-2-((2E,4E)-5-((3R,5S)-7,7-dimethyl-1,6-dioxaspiro[2.5]octan-5-yl)-3-methylpenta-2,4-dienyl)-1,3-dioxan-5-ylamino)-5-oxopent-3-en-2-yl pivalate] | 340 nM | 1180 nM | – | – | – | – | – |
| CC(=O)O[C@@H](C)CCC(=O)N[C@H]1CO[C@@H](C/C=C(C)/C=C/[C@@H]2C[C@]3(CO3)CC(C)(C)O2)OC1 [Compound 53, (S)-5-((2R,5R)-2-((2E,4E)-5-((3R,5S)-7,7-dimethyl-1,6-dioxaspiro[2.5]octan-5-yl)-3-methylpenta-2,4-dienyl)-1,3-dioxan-5-ylamino)-5-oxopentan-2-yl acetate] | > 1000 nM | > 10000 nM | – | – | – | – | – |
